Results reported in article PMC6081459, “Pathogen-derived HLA-E bound epitopes reveal broad primary anchor pocket tolerability and conformationally malleable peptide binding” (Nature Communications, 2018).
Like-named read-outs stand apart in the source and are kept apart here.

Tests used:
HLA-E-β2m complexes [1] = assay type: binding, human; conditions: for Thermal melt (Tm) of peptide-refolded HLA-E-β2m complex: Protein Thermal Shift dye, 5 μg complex, ramp 25 to 95 °C, quadruplicate, median Derivative Tm
[2] = system: Mamu-E restricted CD8^+ T cells; assay type: cell-based, rhesus macaques (Macaca mulatta)
HLA-E-β2m complexes [3] = assay type: binding, human; conditions: 200 M excess peptide, 2 h at room temperature
[4] = system: Mamu-E-restricted CD8+ T cells; assay type: cell-based, rhesus macaques

RLPAKAPLL [Mtb44]
Thermal melt (Tm) of peptide-refolded HLA-E-β2m complex (HLA-E-β2m complexes [1]): 50.2 °C | Mamu-E restricted CD8+ T cell responses (IFNγ and/or TNFα, ICS) [2]: elicited Mamu-E-restricted CD8^+ T cell responses | Displacement of VL9 from pre-refolded HLA-E-β2m-VL9 complexes (BN-PAGE) (HLA-E-β2m complexes [3]): readily displaced | Rhesus CD8+ T cell responses to peptide presented by Mamu-E versus HLA-E [4]: of comparable magnitude

RMYSPTSIL [RL9HIV]
Thermal melt (Tm) of peptide-refolded HLA-E-β2m complex (HLA-E-β2m complexes [1]): not possible to obtain a reproducible thermal melt pattern | Mamu-E restricted CD8+ T cell responses (IFNγ and/or TNFα, ICS) ([2]; PBMC of six RM vaccinated with HIVGag-insert RhCMV68-1 vector, blocking with VL9 (MHC-E) or CLIP + anti-MHC-II): elicited Mamu-E restricted CD8^+ T cell responses | Displacement of VL9 from pre-refolded HLA-E-β2m-VL9 complexes (BN-PAGE) (HLA-E-β2m complexes [3]): also displaced VL9 from HLA-E-β2m complexes | Rhesus CD8+ T cell responses to peptide presented by Mamu-E versus HLA-E [4]: of comparable magnitude

VMAPRTVLL [VL9, reference compound]
Increase in stability (Tm) of the HLA-E-β2m complex versus no peptide refolded forms (HLA-E-β2m complexes [1]): ≤ 10 °C | Thermal melt (Tm) of peptide-refolded HLA-E-β2m complex (HLA-E-β2m complexes [1]): 47.5 °C
